Assay results reported in ChEMBL document CHEMBL1201862, “PubChem BioAssay data set” (2004).
Activity calls are given as the source filed them.

How the values were obtained:
[1] = blockers of SFLLRN-triggered platelet ATP secretion – cell-based, human platelets, luminescence, dry powder, dose response (AID 493100); assay type: functional
[2] = Luminescence Cell-Based Dose Response Follow up to Identify Inhibitors of Platelet Dense Granule Release. [Related pubchem assays (depositor defined):AID1663, AID1678, AID2398]; assay type: functional
[3] = PAR1 agonist-induced platelet activation inhibition – cell-based, fluorescence, flow cytometry, human platelets, dose response (AID 2511); assay type: functional
[4] = CCR5-tropic HIV-1 fusion blockers – cell-based, CCR5-tropic Env, dose response (AID 2279); assay type: functional
[5] = target: Nonstructural protein 1 (Influenza A virus, UniProt Q194T2); assay type: functional, Influenza A virus (A/California/07/2009(H1N1))
Chain of Nonstructural protein 1 (Q194T2 whole entry): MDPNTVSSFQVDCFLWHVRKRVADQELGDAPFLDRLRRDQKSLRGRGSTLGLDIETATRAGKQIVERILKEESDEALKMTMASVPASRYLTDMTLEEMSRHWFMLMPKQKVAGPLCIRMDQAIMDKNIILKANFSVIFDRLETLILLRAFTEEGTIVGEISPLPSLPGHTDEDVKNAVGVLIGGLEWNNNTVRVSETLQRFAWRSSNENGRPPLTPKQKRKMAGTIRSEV

[6] = system: Vero; assay: viability of Vero cells under compound – cytotoxicity control for flavivirus capping enzyme inhibitors (AID 588742); assay type: functional; details: Chlorocebus sabaeus
[7] = target: Genome polyprotein (dengue virus type 2, UniProt P29990); assay: flavivirus cap methylation enzyme inhibition – biochemical, confirmation dose response, primary screen (AID 588689); assay type: functional
Chain of Genome polyprotein (P29990 2492-3391 limits assumed): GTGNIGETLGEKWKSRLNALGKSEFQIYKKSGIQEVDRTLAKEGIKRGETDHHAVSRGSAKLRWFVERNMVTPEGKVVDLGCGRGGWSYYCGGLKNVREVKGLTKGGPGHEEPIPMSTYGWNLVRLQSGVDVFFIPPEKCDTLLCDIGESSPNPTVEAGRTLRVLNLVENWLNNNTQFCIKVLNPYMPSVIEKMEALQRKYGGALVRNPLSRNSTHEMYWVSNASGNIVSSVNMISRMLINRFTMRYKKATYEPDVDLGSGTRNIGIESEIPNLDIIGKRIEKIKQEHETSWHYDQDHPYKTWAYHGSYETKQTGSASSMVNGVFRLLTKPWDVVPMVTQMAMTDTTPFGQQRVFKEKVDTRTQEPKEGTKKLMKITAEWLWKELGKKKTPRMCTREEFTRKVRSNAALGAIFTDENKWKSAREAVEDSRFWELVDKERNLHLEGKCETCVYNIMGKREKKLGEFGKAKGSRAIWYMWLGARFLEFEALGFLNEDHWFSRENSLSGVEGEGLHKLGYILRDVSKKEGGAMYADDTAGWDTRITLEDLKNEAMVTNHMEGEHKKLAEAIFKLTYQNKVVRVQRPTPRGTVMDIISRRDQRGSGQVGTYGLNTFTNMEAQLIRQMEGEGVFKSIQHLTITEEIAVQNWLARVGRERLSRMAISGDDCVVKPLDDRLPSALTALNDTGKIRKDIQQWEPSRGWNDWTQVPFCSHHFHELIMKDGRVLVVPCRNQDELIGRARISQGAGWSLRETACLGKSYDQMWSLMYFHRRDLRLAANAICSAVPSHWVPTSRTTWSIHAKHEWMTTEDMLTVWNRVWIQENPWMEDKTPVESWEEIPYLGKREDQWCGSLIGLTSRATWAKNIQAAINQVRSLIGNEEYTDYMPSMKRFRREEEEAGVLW

[8] = target: T1, Small ubiquitin-related modifier 1 (Homo sapiens, UniProt P63165); assay: SUMO1 protein interaction blockers, potency – biochemical, fluorescence polarization, uHTS hits, dose response (AID 624382); assay type: functional; details: read-out: IC50_Mean
T1 sequence (P63165 whole entry, the tested form may be a part): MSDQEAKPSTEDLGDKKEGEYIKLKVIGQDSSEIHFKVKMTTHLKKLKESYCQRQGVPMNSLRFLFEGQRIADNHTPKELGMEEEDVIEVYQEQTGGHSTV

[9] = target: Envelope glycoprotein gp160 (Human immunodeficiency virus 1, UniProt Q6QLK5); assay: cell-free HIV fusion peptide-binding blockers – biochemical, uHTS, fluorescence dequenching, […] (AID 1986)
Chain of Envelope glycoprotein gp160 (Q6QLK5 whole entry, the tested form may be a part): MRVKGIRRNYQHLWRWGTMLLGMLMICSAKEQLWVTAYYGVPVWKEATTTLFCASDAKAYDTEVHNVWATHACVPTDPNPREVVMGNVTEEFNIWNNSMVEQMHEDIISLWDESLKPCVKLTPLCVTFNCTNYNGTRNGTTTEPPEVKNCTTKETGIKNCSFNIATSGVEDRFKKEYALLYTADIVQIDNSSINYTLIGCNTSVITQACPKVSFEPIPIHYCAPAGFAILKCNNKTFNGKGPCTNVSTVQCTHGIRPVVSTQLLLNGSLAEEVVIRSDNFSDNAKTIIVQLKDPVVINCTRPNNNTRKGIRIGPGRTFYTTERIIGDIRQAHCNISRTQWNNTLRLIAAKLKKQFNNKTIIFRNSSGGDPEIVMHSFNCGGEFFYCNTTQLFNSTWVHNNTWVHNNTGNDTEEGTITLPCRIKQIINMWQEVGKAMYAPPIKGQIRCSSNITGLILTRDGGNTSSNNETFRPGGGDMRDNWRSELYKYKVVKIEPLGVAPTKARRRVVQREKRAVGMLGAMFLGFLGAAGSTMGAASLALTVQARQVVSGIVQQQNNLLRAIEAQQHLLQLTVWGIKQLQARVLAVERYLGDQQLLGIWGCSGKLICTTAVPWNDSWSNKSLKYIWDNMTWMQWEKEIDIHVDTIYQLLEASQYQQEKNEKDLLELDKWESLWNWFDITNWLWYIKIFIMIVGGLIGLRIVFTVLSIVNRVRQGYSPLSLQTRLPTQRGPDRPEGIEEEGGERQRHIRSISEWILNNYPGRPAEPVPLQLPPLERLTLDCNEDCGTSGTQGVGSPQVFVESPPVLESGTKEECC

[10] = target: DNA (cytosine-5)-methyltransferase 1 (Homo sapiens, UniProt P26358); assay: inhibition of DNA methylation by DNMT1 – biochemical, fluorescent molecular beacon, confirmation (AID 602386); assay type: functional
[11] = target: T2, Dual specificity protein phosphatase 3 (Homo sapiens, UniProt P51452); assay: VHR1 phosphatase inhibitors, primary screen, biochemical, absorbance, uHTS (AID 1654)
T2 sequence (P51452 whole entry): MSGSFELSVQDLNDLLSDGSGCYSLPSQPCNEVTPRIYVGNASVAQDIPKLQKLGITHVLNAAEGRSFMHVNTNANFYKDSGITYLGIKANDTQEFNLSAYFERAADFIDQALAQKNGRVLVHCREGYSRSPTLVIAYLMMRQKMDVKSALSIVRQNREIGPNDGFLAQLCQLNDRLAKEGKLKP

[12] = target: T2, Dual specificity protein phosphatase 3; assay: VHR1 phosphatase inhibitors, biochemical (AID 1878)
[13] = target: Eukaryotic translation initiation factor 4E (Mus musculus, UniProt P63073); assay: blockers of eIF4G binding by eIF4E – biochemical, TR-FRET, dose response (AID 855); assay type: functional;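 also: potency for disrupting eIF4E binding to eIF4GI seen as loss of FRET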
Chain of Eukaryotic translation initiation factor 4E (P63073 whole entry): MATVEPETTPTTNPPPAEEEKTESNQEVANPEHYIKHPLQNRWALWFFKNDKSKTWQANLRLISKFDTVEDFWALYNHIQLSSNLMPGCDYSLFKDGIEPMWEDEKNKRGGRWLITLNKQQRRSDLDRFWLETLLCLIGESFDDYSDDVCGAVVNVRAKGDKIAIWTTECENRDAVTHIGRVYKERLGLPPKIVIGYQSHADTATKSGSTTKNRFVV

[14] = target: T3, Dual specificity protein phosphatase 6 (Rattus norvegicus, UniProt Q64346); assay: inhibition of rat DUSP6 enzyme activity – biochemical, in vitro, primary screen (AID 425)
T3 sequence (Q64346 whole entry): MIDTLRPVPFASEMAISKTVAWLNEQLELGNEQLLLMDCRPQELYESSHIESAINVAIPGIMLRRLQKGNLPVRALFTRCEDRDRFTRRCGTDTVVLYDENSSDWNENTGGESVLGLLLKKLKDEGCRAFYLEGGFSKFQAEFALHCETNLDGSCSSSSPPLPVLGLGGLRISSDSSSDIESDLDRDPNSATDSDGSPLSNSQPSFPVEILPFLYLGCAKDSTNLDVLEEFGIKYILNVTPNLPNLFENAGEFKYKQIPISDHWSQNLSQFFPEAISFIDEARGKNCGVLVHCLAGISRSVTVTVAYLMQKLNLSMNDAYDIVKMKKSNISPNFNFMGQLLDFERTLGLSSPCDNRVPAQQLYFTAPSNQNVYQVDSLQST

[15] = target: T1, Small ubiquitin-related modifier 1; assay: SUMO1 protein-protein binding blockers, potency – biochemical, FRET, dose response (AID 624383); assay type: functional; details: read-out: IC50_Mean
[16] = target: Dual specificity tyrosine-phosphorylation-regulated kinase 1A (Rattus norvegicus, UniProt Q63470); assay type: biochemical, Homo sapiens
[17] = target: DNA topoisomerase (Yersinia pestis, UniProt A0A2S9PM60); assay: Yersinia topoisomerase I cleavage product accumulation – biochemical, cherry-pick, dose response (AID 588525)
Chain of DNA topoisomerase (A0A2S9PM60 whole entry): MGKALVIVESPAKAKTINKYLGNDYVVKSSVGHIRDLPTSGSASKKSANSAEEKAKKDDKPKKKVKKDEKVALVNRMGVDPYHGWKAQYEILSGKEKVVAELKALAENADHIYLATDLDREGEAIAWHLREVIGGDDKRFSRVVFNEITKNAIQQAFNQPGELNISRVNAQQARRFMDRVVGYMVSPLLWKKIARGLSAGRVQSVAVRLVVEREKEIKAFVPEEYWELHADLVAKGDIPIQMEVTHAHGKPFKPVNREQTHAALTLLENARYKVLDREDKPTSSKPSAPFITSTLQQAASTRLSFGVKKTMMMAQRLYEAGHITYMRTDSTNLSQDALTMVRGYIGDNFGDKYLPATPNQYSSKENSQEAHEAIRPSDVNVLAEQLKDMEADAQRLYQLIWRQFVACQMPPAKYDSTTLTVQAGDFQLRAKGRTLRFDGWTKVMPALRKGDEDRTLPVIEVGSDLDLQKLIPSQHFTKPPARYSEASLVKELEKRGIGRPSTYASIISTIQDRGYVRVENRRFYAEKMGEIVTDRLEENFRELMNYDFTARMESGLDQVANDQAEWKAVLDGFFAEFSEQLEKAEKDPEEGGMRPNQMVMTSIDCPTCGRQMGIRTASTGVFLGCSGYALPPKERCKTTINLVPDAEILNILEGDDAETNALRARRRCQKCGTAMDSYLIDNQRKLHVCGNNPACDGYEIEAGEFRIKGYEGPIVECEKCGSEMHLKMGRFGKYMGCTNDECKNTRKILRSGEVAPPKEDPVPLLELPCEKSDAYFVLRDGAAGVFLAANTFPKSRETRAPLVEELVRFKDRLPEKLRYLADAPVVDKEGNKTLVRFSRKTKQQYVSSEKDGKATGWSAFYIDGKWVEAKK

[18] = target: Cystic fibrosis transmembrane conductance regulator/Golgi-associated PDZ and coiled-coil motif-containing protein (Homo sapiens, UniProt P13569+Q9HD26); assay: potency against CAL PDZ-peptide interaction – biochemical, fluorescence polarization, Cerulean-tagged CAL PDZ, cherry-picks, dose response (AID 504773)
[19] = target: Beta-adrenergic receptor kinase 1 (Homo sapiens, UniProt P25098); assay: aptamer displacement from bead-bound GRK2 – biochemical, cherry pick 1, bead flow cytometry, dose response (AID 504500)
Chain of Beta-adrenergic receptor kinase 1 (P25098 whole entry): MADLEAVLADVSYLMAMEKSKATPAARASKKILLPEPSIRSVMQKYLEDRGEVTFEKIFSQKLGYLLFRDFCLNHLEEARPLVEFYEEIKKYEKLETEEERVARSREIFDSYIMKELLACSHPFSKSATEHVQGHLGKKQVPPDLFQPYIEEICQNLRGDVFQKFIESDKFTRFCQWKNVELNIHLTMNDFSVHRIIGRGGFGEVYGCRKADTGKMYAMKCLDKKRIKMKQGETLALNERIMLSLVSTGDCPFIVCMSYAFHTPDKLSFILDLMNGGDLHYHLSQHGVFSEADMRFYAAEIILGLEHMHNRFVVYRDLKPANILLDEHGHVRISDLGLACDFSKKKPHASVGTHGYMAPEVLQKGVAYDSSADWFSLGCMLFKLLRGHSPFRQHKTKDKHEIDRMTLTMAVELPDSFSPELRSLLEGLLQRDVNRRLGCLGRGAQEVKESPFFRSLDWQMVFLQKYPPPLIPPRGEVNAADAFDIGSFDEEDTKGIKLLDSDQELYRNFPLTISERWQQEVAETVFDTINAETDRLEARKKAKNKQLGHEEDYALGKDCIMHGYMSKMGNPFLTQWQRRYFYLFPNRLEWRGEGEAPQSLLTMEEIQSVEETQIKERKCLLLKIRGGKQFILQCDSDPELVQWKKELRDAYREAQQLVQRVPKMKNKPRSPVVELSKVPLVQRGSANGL

[20] = system: INS1; assay: INS-1E survival protection against cytokine death – cell-based, luminescence, retest, dose response (AID 449756); assay type: functional; details: Rattus norvegicus;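 also: cell death triggered by IL-1 beta plus TNF-alpha plus IFN-gamma mixture; protective hits raise ATP signal compared with cytokine alone wells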
[21] = Counterscreen for AddAB inhibitors: absorbance-based bacterial cell-based high throughput dose response assay for inhibitors of bacterial viability. [Related pubchem assays (depositor defined):AID435030, AID449728, AID449731, AID488942, AID488955, AID488956]; assay type: functional
[22] = target: G-protein coupled receptor 55 (Homo sapiens, UniProt Q9Y2T6); assay: selective activators of receptor GPR55 – imaging, U2OS cells, beta-arrestin-GFP redistribution, primary screen (AID 1961); assay type: functional
[23] = target: Exodeoxyribonuclease V (Escherichia coli (strain K12), UniProt P04993+P07648+P08394); assay: RecBCD inhibition via phage-restricted bacterial growth – absorbance, V66 E. coli, mutant T4 phage, counter-screen for AddAB inhibitor project, dose response (AID 492957); assay type: functional, cell-based, Escherichia coli str. K-12 substr. MG1655
[24] = target: Voltage-gated inwardly rectifying potassium channel KCNH2 (Homo sapiens, UniProt Q12809); details: Potency;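 also: confirmatory quantitative high-throughput screen measuring inhibition of hERG channel activity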
[25] = target: T4, Hexokinase HKDC1 (Homo sapiens, UniProt Q2TB90); assay: analog inhibition of human HKDC1 activity – biochemical, set 2, SAR follow-up (AID 588355); assay type: functional
T4 sequence (Q2TB90 whole entry): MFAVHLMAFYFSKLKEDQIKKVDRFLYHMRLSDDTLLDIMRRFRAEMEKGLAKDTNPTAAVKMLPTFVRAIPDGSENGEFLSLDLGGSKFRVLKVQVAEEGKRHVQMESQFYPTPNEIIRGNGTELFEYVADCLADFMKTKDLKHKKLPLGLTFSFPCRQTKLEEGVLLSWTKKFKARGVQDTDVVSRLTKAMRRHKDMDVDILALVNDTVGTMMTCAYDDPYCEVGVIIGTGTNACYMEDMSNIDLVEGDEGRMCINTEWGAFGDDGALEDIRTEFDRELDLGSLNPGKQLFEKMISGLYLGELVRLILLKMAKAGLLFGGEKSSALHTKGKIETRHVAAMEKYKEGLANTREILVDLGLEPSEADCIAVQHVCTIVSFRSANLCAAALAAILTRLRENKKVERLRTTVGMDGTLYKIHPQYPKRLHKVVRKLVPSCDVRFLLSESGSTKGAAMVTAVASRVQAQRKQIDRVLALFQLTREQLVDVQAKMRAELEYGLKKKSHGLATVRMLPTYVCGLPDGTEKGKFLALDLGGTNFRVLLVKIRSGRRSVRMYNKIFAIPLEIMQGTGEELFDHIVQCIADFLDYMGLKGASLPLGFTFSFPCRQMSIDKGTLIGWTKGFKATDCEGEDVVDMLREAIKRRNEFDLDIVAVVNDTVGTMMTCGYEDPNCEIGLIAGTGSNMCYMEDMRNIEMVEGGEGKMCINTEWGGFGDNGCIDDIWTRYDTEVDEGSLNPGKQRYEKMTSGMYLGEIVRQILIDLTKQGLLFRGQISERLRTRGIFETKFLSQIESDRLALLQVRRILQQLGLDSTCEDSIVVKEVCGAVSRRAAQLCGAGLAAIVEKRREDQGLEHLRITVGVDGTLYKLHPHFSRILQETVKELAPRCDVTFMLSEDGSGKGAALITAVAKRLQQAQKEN

[26] = target: Hexokinase-1 (Homo sapiens, UniProt P19367); assay: hexokinase 1 activity inhibitors, potency – biochemical, set 2, resazurin fluorescence coupled readout, selectivity assay for HKDC1 inhibitor project, SAR follow-up (AID 588356); assay type: functional
Chain of Hexokinase-1 (P19367 whole entry): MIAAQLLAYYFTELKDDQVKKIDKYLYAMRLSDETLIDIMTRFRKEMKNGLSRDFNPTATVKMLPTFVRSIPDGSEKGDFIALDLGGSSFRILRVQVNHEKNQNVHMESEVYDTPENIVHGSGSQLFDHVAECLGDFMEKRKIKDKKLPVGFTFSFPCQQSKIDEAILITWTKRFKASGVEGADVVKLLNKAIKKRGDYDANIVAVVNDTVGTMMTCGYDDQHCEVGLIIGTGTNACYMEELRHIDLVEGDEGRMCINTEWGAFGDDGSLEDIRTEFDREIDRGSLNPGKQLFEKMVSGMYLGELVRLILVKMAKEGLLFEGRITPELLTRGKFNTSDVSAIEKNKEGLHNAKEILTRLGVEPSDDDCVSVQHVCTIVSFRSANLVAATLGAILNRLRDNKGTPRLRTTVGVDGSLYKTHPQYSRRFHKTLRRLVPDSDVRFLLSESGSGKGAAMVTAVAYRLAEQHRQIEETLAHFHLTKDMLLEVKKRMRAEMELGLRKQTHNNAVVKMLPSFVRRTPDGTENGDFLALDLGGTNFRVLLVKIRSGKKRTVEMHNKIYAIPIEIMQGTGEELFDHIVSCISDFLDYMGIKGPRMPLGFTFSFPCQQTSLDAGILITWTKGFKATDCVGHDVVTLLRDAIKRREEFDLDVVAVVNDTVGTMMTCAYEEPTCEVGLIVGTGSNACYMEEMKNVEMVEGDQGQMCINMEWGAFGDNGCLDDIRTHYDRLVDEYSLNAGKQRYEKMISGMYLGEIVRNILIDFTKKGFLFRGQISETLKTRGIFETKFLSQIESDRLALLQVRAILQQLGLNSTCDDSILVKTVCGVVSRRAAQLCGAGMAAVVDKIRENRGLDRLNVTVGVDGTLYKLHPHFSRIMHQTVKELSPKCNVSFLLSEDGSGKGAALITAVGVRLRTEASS

[27] = system: Jurkat; assay: SAR Analysis of small molecule inhibitors of T-cell specific antigen receptor-induced NF-kB activation in a Jurkat cell line using a luminescence assay - Set 2. [Related pubchem assays (depositor defined):AID435003, AID435012, AID465]; assay type: functional, cell-based; details: Homo sapiens
[28] = system: HEK293; assay: SAR Analysis of small molecule inhibitors of T-cell specific antigen receptor-induced NF-kB activation in a HEK-293T cell line using a luminescence assay - Set 2. [Related pubchem assays (depositor defined):AID435003, AID435012, AID489026]; assay type: functional, cell-based; details: Homo sapiens
[29] = system: HEK293; assay: HEK293T cell viability loss, resazurin readout – resazurin fluorescence, cytotoxicity control for NF-kB activator project, SAR follow-up (AID 493251); assay type: functional, cell-based; details: Homo sapiens
[30] = system: A-375; assay: MITF: Counter assay: A375 proliferation Measured in Cell-Based System Using Plate Reader - 2084-03_Inhibitor_Dose_DryPowder_Activity. [Related pubchem assays (depositor defined):AID488944]; assay type: functional; details: Homo sapiens
[31] = system: A-375; assay: proliferation inhibition in MITF-low A375 cells – cell-based, cherry-pick samples, set 2, counter-screen for MITF modulator project, dose response (AID 540335); assay type: functional; details: Homo sapiens
[32] = system: Escherichia coli; assay: microbe, parasite or virus in culture
[33] = cells; assay type: functional
[34] = target: T5, DNA repair and recombination protein RAD54-like (Homo sapiens, UniProt Q92698); assay: RAD54 Holliday junction migration blockers – biochemical, fluorescence, cherry-picked samples, dose series, confirmation (AID 651657); assay type: functional
T5 sequence (Q92698 whole entry): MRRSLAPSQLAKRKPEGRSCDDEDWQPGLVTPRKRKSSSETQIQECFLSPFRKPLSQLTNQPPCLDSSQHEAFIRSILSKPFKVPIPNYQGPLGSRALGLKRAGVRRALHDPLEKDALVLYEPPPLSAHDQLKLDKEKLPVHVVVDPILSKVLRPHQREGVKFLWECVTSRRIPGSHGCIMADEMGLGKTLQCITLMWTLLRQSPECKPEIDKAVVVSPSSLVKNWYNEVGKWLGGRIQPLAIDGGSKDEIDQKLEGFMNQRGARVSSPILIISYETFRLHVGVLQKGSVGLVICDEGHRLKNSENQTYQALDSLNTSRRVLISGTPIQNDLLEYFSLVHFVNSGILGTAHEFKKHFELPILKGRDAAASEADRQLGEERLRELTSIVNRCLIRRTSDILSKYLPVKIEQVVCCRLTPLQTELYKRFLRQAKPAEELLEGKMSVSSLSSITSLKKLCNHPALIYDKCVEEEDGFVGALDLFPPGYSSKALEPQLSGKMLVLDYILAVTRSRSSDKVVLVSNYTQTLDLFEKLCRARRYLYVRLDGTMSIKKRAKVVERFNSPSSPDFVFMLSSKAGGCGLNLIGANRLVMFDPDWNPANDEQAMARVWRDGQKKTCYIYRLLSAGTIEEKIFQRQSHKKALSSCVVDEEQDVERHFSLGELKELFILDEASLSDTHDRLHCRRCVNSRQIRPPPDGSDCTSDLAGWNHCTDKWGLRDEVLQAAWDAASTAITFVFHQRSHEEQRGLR

[35] = system: Streptococcus; assay: GAS UMAA2166 growth inhibition – luminescence, BacTiterGlo, counter-screen for streptokinase expression inhibitor project, dose response (AID 1915); assay type: functional, organism-based;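 also: potency for reduction of bacterial viability or growth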
[36] = system: Escherichia coli; assay: microbe, parasite or virus in culture; remark: listed apart in the source
[37] = system: Streptococcus sp. 'group A'; assay: Streptococcus pyogenes SK(-)GAS viability under kanamycin – luminescence, BacTiterGlo, confirmation, counter-screen for streptokinase expression inhibitor project, dose response (AID 1900); assay type: functional, organism-based

Cc1ccc(-c2c(C#N)c(N)n(-c3ccc(Cl)cc3)c(=O)c2C#N)cc1
AC50 [1]: 20.4 µM (active)
EC50 [2]: 9.21 µM (active)
EC50 [3]: < 3 µM (active)

COc1cc(/C=C2\SC(=O)N(Cc3ccc(Cl)cc3)C2=O)cc([N+](=O)[O-])c1O
IC50 [4]: > 50 µM (active)
IC50 [5]: 26.9 µM (active)
CC50 [6]: > 40 µM (active)
IC50 [7]: 67.5 µM (active)
IC50 [8]: > 66.6 µM (inactive)
IC50 [9]: 14.9 µM (active)
IC50 [10]: 4.6 µM (active)
IC50 [11]: 4.68 µM (active)
IC50 [12]: 3.54 µM (active)
IC50 [13]: 36.7 µM (inactive)
IC50 [14]: > 158 µM (not active)
IC50 [15]: 6.99 µM (active)

c1nc2sc3c(c2c2nnnn12)CCCC3
AC50 [16]: 63.2 µM (active)

CSc1ccccc1OCc1cc(C(=O)NCCCc2ccccc2)no1
AC50 [17]: 17 µM (active)

O=C(c1ccccc1)c1c2c(cc3sc4ccccc4[n+]13)-c1cccc3cccc-2c13
AC50 [18]: 72.6 µM (active)
EC50 [19]: 0.06 µM (active)
AC50 [20]: 2.05 µM (active)
IC50 [21]: 15.1 µM (inactive)
EC50 [22]: > 32 µM (inactive)
IC50 [23]: 91.3 µM (inactive)

O=[N+]([O-])c1cccc(Cl)c1Cl
AC50 [24]: 50.1 µM (inconclusive)

O=C(NC1C(=O)N(CCN2CCOCC2)c2ccccc21)c1ccccc1 (configuration not stated)
IC50 [25]: > 80 µM (inactive)
IC50 [26]: > 80 µM (inactive)

O=C(Nc1ccc2c(c1)CCO2)c1ccc([N+](=O)[O-])o1
IC50 [27]: 33.8 µM (inactive)
IC50 [28]: 45.6 µM (inactive)
IC50 [29]: 59.5 µM (inactive)

CSC(=N)N/N=C/c1ccc2c(c1)OCO2
AC50 [30]: > 35 µM (active)
AC50 [31]: > 35 µM (active)

NC1CCN(c2c(F)cc3c(=O)c(C(=O)O)cn(C4CC4)c3c2Cl)C1 (configuration not stated) [CLINAFLOXACIN]
AC50 [32]: 4.49 µM (active)
IC50 [33]: 0.15 µM (active)
AC50 [34]: 41.4 µM (active)
EC50 [35]: 0.142 µM (active)
AC50 [36]: 0.816 µM (active)
EC50 [37]: 0.115 µM (active)
